From patent publication US20240025886A1, “INHIBITORS OF IGF2BP1-RNA BINDING” (YISSUM RESEARCH DEVELOPMENT COMPANY OF THE HEBREW …, priority 2020, published 2024)

Columns and labels:
Igf2bp1 RRM12 di-domain = target: T1, Igf2bp1 RRM12 di-domain (Homo sapiens, UniProt Q9NZI8); assay: MST binding to Igf2bp1 di-domain RRM12
T1 construct: RRM12 (M1-P188); 6xHis (N, cleaved yes); made in house; host or cells: E. coli BL21(DE3)
Protocol: Recombinant full-length Igf2bp1 protein was labelled with RED-tris-NTA dye using a Monolith NT His-Tag Labelling Kit (NanoTemper) while RRM12, KH12 and KH34 di-domain peptides were labelled using the Protein Labeling Kit RED NHS 2nd generation (NanoTemper). Labelled proteins were spun at 15,000 g for 5 min to eliminate aggregates. All samples were 2× labelled protein mix of Igf2bp1 (200 nM) in PBST and were combined (1:1) with serial dilutions of compound or Kras6 RNA in binding buffer (10 mMTris pH=7.5, 100 mM NaCl, 0.1 mM EDTA, 0.06% IPEGAL, 0.02 μg/μL tRNA, 2 mM DTT, 0.1 μg/μL heparin) in final volume of 20 μL, room temperature for 15 min. Samples were then loaded into standard capillaries (NanoTemper) and read in the Monolith NT.115 scanner (NanoTemper) using the red filter with reading conditions of 95% LED power and 40% MST power, 5 sec fluorescence before, 30 sec MST on, 5 sec fluorescence after and 25 sec delay between samples. Results were analyzed using the MO Control software (NanoTemper) for curve fitting to KD.

ES2 cells = assay: Real-time PCR of steady state RNA levels in ES2 cells; format: cell-based, human; design: dose or concentration left out as unconfirmed
Protocol: Primers were calibrated for several Igf2bp1 RNA targets (Table 3): […]
Cells were grown for 12 hours in 12 well plates prior to incubation with the compound at different concentrations for an additional 12 or 24 hours. Total RNA was then extracted using EZ-RNA total RNA isolation kit (Biological Industries) and cDNA prepared from the RNA using the First Strand cDNA Synthesis kit (Quanta bio). Real time PCR was performed with Fast SYBR Green Master Mix (Thermo Fisher Scientific), and cDNA expression analyzed with the Bio-Rad CFX Manager 3.1.

HEK293 cells = assay: Cell proliferation assay (Incucyte), HEK293 cells; format: cell-based, human; design: dose or concentration left out as unconfirmed; conditions: HEK293, 7773
Protocol: ES2, H1299 and HEK293 cells were seeded in a 96 well plate (5×10^3 cells per well) for 24 hours before adding the compound at increasing concentrations. After an additional 24 hours, the plate was incubated in an IncuCyte® S3 Live-Cell Analysis System (Essen BioScience). The wells were filmed for 72 hours, and then analyzed for proliferation rate Using IncuCyte® S3 Live-Cell Analysis System (Essen BioScience)

[1] = system: LKR-M cells transfected with full length human Igf2bp1-GFP; assay: Wound healing assay, LKR-M cells expressing human Igf2bp1-GFP; format: cell-based, mouse; design: dose or concentration left out as unconfirmed; conditions: 7773 vs DMSO
Protocol: (§1) Cells were seeded in 96 IncuCyte® ImageLock plates (20×10^3 cells per well) for 24 hours, to a near confluency of 95%, before the addition of increasing concentrations of compound. After a further 24 hours, wells were scratched using the IncuCyte® 96-well WoundMaker Tool, and the cells cultured for an additional 48 hours using the IncuCyte® S3 Live-Cell Analysis System (Essen BioScience). The plate was imaged at increments of 120 minutes for a period of 48 hours, and then analyzed for relative wound healing.

[2] = system: LKR-M cells transfected with GFP alone; assay: Wound healing assay, LKR-M cells expressing GFP alone; format: cell-based, mouse; conditions: 20 mM 7773 vs DMSO
Protocol: as §1

[3] = system: Igf2bp1 split-luciferase reporter in RKO cells; assay: Split-luciferase assay of Igf2bp1 dimerization in RKO cells; format: cell-based; design: dose or concentration left out as unconfirmed
Protocol: Vectors expressing different fragments of split luciferase reporters with flexible linker were procured from Addgene (catalog #58786, 58787, 58788 and 58789). The vectors were digested with EcoRI and XhoI. EcoRI and XhoI restriction enzyme sites were added to 5′ and 3′ ends of the coding region of IGF2BP1 respectively using PCR. The inventors constructed four split luciferase reporter vectors by cloning IGF2BP1 in different orientation with the luciferase fragments (FIG. 8B). Primers used for the amplification of IGF2BP1 were: […]
The RKO cells were seeded in DMEM with 10% calf serum 24 hrs prior to the transfection. Transfection was done using Lipofectamine 2000 with reporter plasmids and Renilla-luciferase expressing vector (as internal control). After 24 hrs, cells were lysed using passive lysis buffer (Promega catalog #E1941). The lysates were cleared by centrifugation and its […] volume was mixed with […] of luciferase substrate solution for luminescence recording which was followed by addition of […] of Stop-glo solution (Promega catalog #E1910) with an additional luminescence reading. Both readings were detected by using GloMax 20/20 Luminometer (Promega), and the final value for each sample was the ratio of their two respective readings. […]

[4] = system: Kras protein in H1299 cells; assay: Western blot of Kras protein in H1299 cells; format: cell-based, human; conditions: H1299, 10 and 20 μM 7773, 48 hours
Protocol: Western blots were performed as previously described. For fluorescent westerns, cell lysates were prepared with phosphatase inhibitors (β-Glycerophosphate and Sodium orthovanadate) and a protease inhibitor (cOmplete™, Mini Protease Inhibitor Cocktail, Roche 04693124001), membranes were read using a Li-Core Odyssey laser scanner, and results analyzed using Image Studio Lite software.
The following primary antibodies were used: mouse anti-total ERK (p44/42 MAPK (Erk1/2) L34F12 Cell Signaling 4696s), mouse anti-Kras (CPTC-KRAS4B-2, DSHB) rabbit anti-dpERK, (p44/42 MAPK, Cell Signaling 4370), rabbit anti-alpha/beta tubulin (Cell Signaling 2148), goat anti-rabbit IgG-HRP (Jackson), goat anti-mouse IgG-HRP (Jackson). Secondary antibodies for fluorescent westerns: donkey anti-mouse 800 (Rockland 610-732-124), goat anti-rabbit 680 (Molecular Probes A21076).

H1299 cells = assay: Wound healing (cell migration) assay, H1299 cells; format: cell-based, human
Protocol: as §1

T1 sequence (Q9NZI8 1-188): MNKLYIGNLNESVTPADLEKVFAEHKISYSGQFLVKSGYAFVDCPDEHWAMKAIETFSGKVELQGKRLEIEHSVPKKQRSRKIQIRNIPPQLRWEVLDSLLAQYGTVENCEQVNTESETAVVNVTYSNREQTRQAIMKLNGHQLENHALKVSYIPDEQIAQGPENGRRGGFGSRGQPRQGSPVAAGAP

O=C(c1ccc(Cn2cnnn2)cc1)N1CCCC(Nc2ccc3c(c2)OCO3)C1 (centres unmarked) [Compound 7773]
Kd (Igf2bp1 RRM12 di-domain): 1500 nM
Steady state levels of CD44, Kras, cMyc and SRF RNA (ES2 cells; ES2, 7773, 12 hours): reduced
Steady state level of CD44 RNA (ES2 cells; ES2, 7773, 12 hours, appeared to recover after 24 hours): strongly reduced
Steady state levels of control RNAs (not targets of Igf2bp1) (ES2 cells; ES2, 7773, 24 hours): not significantly affected
Cell proliferation (HEK293 cells): remarkably unaffected
Inhibition of Igf2bp1-GFP enhanced wound healing [1]: significantly inhibited
Effect on migration of cells expressing GFP alone [2]: unaffected
Split-luciferase luminescence [3]: significantly reduced luminescence
Kras protein expression [4]: dose-dependent reduction
Inhibition of wound healing (H1299 cells; H1299, 5 mM 7773): discernible inhibition
Inhibition of wound healing (H1299 cells; H1299, 20 mM 7773): strongly inhibited
